Where “and” joins values, the source holds several entries; their conditions need not be identical. Identical values can stand only once.
Key:
SF/GF peptide = assay: serum antibody ELISA to SF/GF peptide; type: in vivo, mice; design: scale not given here; conditions: serum pool four days before challenge
From the text: (§1) Next using another antigen with B and T cell activity two inbred strains of mice, (A/J and Balb/c) were immunized twice at three week intervals with the L.E.A.P.S.™ constructs (J-GF/SF or der-SF/GF) or with the subunits (SF/GF, J and derG) used to make heteroconjugated peptides, and were challenged with 100 Plasmodium yoelii sporozoites 2 weeks after the second immunization and protection efficacy evaluated as before. Four days before challenge, serum was collected from individual animals, pooled and analyzed immediately for antibody to SF/GF peptide sera collected from immunized and protected mice 15 days post challenge were pooled and used for IFN-γ determination by ELISA procedures.

IFN-γ = assay: serum IFN-γ determination by ELISA; type: in vivo; conditions: A/J mice, serum pool 15 days post challenge
From the text: as §1

B16 melanoma = assay: allogeneic murine B16 melanoma protection model; type: in vivo, mice; conditions: in combination with allogeneic K1735 cells; B16 challenge; two experiments
Description: In particular, C57/b16 (H2^b) mice are vaccinated with the allogeneic melanoma K1735 (H2^k) at least twice on weekly intervals and then challenged with syngeneic B16 (H2^b) tumors. […] This is clear evidence of cross-priming and the existence of shared antigens.
Peptide constructs were prepared using as T cell binding ligand, either derG (SEQ ID NO. 7), Peptide G (SEQ ID NO. 5). The peptides are synthesized using the FMOC procedure and a double coupling protocol for the first 8 residues. Usually the peptide is prepared with the carboxyl terminus as an amide form. All of the peptides are purified using preparative HPLC, and analyzed by an analytical HPLC, amino acid analysis and mass spectrophotometer. The peptides are greater than 95%, usually greater than 98%, pure by HPLC criteria. The dry peptides are stored in vials with desiccant at −8° C. • 1) Eight groups of seven mice were injected with 200 μl of the vaccine as shown in FIG. 1. • 2) This was repeated after 7 days. • 3) A further 7 days later, mice were challenged with 200 μl saline containing 5×10^4 live B16 on the contralateral side to vaccination. • 4) Mice were sacrificed when tumor size exceeded 15 mm in either axis.
In order more precisely model the use of clinical allogeneic vaccines, a frozen vaccine was used in the mouse model wherein K-1735 cells were thawed just prior to use. […]

HSV-1 = assay: scarification zosteriform spread model of HSV infection; type: in vivo; conditions: A/J mice
Description: Groups of 4- to 6-wk old female A/J mice were subcutaneously inoculated once with 25 μg of the derG peptide emulsified in ISA51 adjuvant at a 1:1 ratio before challenge unless otherwise specified. Untreated mice and mice treated with adjuvant served as additional controls. The mice were challenged as specified in methods well known to those of ordinary skill in the art and as exemplified by Goel et al. (“The Ability of an HSV Strain to Initiate Zosteriform Spread Correlates with its Neuroinvasive Disease Potential”, Arch Virol 147:763-773 (2002)) and Goel et al., (“A Modification Of The Epidermal Scarification Model Of Herpes Simplex Virus Infection To Achieve A Reproducible And Uniform Progression Of Disease”, J Virol Meth 106; 153-8 (2002)).
In particular, hair is removed by shaving and then Nair® is applied. Twenty-fours later the depilated back of a mouse is scratched or abraded to expose the susceptible epidermal layer and virus rubbed in. To provide more detail, 10 μl of a virus suspension containing 6×10^4 plaque forming units was pipetted onto a 0.5 cm square of skin on mouse dorsal surface, which was previously abraded using sand paper glued on a pencil eraser. In untreated animals, the primary lesion developed at the inoculation site within 3 days and spread to the associated root, followed by anterograde transport and formation of secondary lesions at sites along the dermatome of the nerves within 5 days. In severe cases, animals died within 8 days post viral challenge. Disease progression and survival were monitored for at least 10 days. […] The progression and the severity of the lesions was scored from 0 to 7 (death). This model allows for discrimination of the disease progression (local site, neuronal spread, extent of lesion at the dermatome, death) at which the immune system blocks viral progression. In some experiments modifications in the timing, route of administration and mouse strain were evaluated for efficacy of CEL-1000.

[1] = test system: Plasmodium yoelii sporozoites; assay: malaria protection assay, sporozoite challenge of immunized mice; type: in vivo; conditions: for Protection: 25 μg 2 times at 3 week intervals in TiterMax, 100 sporozoites
Description: In particular, mice were immunized twice at three week intervals with 25 μg of the subunits (W or G) used to make the L.E.A.P.S.™ construct (GW), and were challenged with 200 plasmodium yoelii sporozoites 2 weeks after the second immunization. Protective efficacy was evaluated by thin blood smears every other day starting 4 days after the challenge. Mice were considered protected if no blood stage parasites were detectable by 14 days after challenge.
as §1
Groups of 10 mice were pre-treated 2 times at 3 week intervals with 25 μg of derG in TiterMax™ adjuvant and challenged with 100 Plasmodium yoelii sporozoites. Protective efficacy was evaluated as described above.

[2] = A/J mice, dose 1.25 μg (Table 6)
[3] = A/J mice, dose 2.5 μg (Table 6)
[4] = A/J mice, dose 5 μg, 100 sporozoites (Table 5)
[5] = A/J mice, dose 25 μg, 100 sporozoites (Table 5)
[6] = Balb/c mice, dose 25 μg, 100 sporozoites (Table 5)

| Sequence | Antibody EL1SA A490* (SF/GF peptide; A/J mice, dose 5 μg) | Antibody EL1SA A490* (SF/GF peptide; A/J mice, dose 25 μg) | Antibody EL1SA A490* (SF/GF peptide; Balb/c mice, dose 25 μg) | Protection (%) ([1]; A/J mice, dose 5 μg (Table 6)) | Protection (%) [1, 4] | Protection (%) [1, 5] | Protection (%) [1, 6] | Protection (%) ([1]; A/J mice, dose 10 μg (Table 6)) | other results |
| --- | --- | --- | --- | --- | --- | --- | --- | --- | --- |
| DGQEEKAGVVSTGLIGGG [derG, modified fragment from MHC II β-chain (a.a. 135-149)] | 2 | 2 | 4 | 100% | 100% | 100% | 0% |  | IFN-γ serum (IFN-γ; dose 5 μg): 40,000 pg/mL; IFN-γ serum (IFN-γ; dose 25 μg): 18,000 pg/mL; Protection (B16 melanoma): 30% and 40%; protection from lethal HSV-1 challenge (HSV-1): protects A/J mice from lethal HSV-1 challenge; Protection (HSV-1; intramuscularly 2 weeks prior to challenge, without adjuvant, in aqueous solution): 100%; onset of symptoms, morbidity and mortality, zosteriform spread (HSV-1; single dose of 25 μg, timing of administration (FIG. 3)): delay in onset of symptoms; Protection ([1]; A/J mice): 80; Protection (%) [1, 2]: 60%; Protection Protected/Tested [1, 2]: 6/10; Protection (%) [1, 3]: 80%; Protection Protected/Tested [1, 3]: 9/10; Protection Protected/Tested ([1]; A/J mice, dose 5 μg (Table 6)): 10/10; Protection Protected/Tested [1, 4]: 10/10; Protection Protected/Tested [1, 5]: 10/10; Protection ([1]; BALB/c mice): 0; Protection Protected/Tested [1, 6]: 0/10; Protection ([1]; C3H mice): 40; Protection ([1]; CAF1 hybrid mice): 40 |
| DGQEEKAGVVSTGLIGGGSFPMNEESPLGFSPEEMEAVASKFR [derG-GF/SF] | 1,933 | 10,694 | 17,019 | 10% | 80% | 100% | 0% |  |  |
| DLLKNGERIEKVEGGG SFPMNEESPLGFSPEEMEAVASKFR [J-GF/SF] | 1,103 | 6,121 | 11,454 |  | 10% | 100% | 0% | 56% |  |
| DLLKNGERIEKVEGGG [J, short fragment from β2-microglobulin (a.a. 38-50)] | 1 | 2 | 2 |  | 10% | 10% | 0% | 10% |  |
| SFPMNEESPLGFSPEEMEAVASKFR [GF/SF] | 8,443 | 19,970 |  | 10% | 30% | 100% |  | 50% |  |
